# Source: patent US11452731B2, “Method of treating and preventing loss of cognition” (ENDORECHERCHE, INC., priority 2009, dated 2022)
# Test: Clinical trial ERC-205: DHEA 50 mg daily versus placebo on hot flushes in postmenopausal women (Example 10)
# Assay type: in vivo
# Details: 50 mg, strata 50 to 70 hot flushes per week at screening
# Method: Postmenopausal women experiencing moderate or severe hot flushes per week (as determined by a two week diary) were randomized to receive a daily dose of either placebo or 50 mg DHEA. Fifty evaluable participants (25 patients per arm) were treated for four months with a daily assessment of hot flushes recorded in a diary completed by each participant.
# Postmenopausal women aged 40 to 70 years with moderate or severe hot flushes per week, as confirmed by a two-week screening hot flush diary were enrolled after signing informed consent. The protocol was approved by the Institutional Review Board (IRB) of Le Centre Hospitalier de l'Université Laval and by Health Canada.
# The primary endpoint was the change from Baseline in the weekly frequency of moderate to severe hot flushes at Week 16, after four months of treatment. The objectives also included the change from Baseline in the weekly frequency of all hot flushes and the change from Baseline in the weekly weighted severity score.
# The response endpoint is the patient's paper diary which was filled in daily to specify the number and type of hot flushes as follows:
# The hot flush diary began as a Screening diary for two weeks prior to randomization whereby patients had to complete the diary daily, recording the number and severity of hot flushes. The patients had to record an average of 50 or more moderate or severe hot flushes per week over the two-week period to be eligible (i.e., at least 100 hot flushes documented on the two week Screening diary).
# Once randomized, the patient completed eight, two-week hot flush diaries upon beginning study medication. The diaries had to be filled out on a daily basis. The first diary was completed over the first two weeks and be returned on the two week visit. The second two-week diary was completed over the next two weeks of the first four week treatment period and was returned at the four week visit. At 4, 8, 12 and 16 week visits, two two-week diaries for hot flushes were collected.
# [1] = Screening (mean of 2 w), baseline
structure (smiles),measurement,setting,value
"C[C@]12CC[C@H](O)CC1=CC[C@@H]1[C@@H]2CC[C@]2(C)C(=O)CC[C@@H]12 [DHEA, dehydroepiandrosterone]",NUMBER OF ALL HOT FLUSHES PER WEEK (MEAN),[1],63.7
same,NUMBER OF MODERATE TO SEVERE HOT FLUSHES PER WEEK (MEAN),[1],56.7
same,WEIGHTED SEVERITY SCORE OF HOT FLUSHES PER WEEK (MEAN),[1],144.3
same,NUMBER OF ALL HOT FLUSHES PER WEEK (MEAN),Week 1,60.8
same,NUMBER OF MODERATE TO SEVERE HOT FLUSHES PER WEEK (MEAN),Week 1,54.2
same,WEIGHTED SEVERITY SCORE OF HOT FLUSHES PER WEEK (MEAN),Week 1,141.0
same,NUMBER OF ALL HOT FLUSHES PER WEEK (MEAN),Week 2,55.3
same,NUMBER OF MODERATE TO SEVERE HOT FLUSHES PER WEEK (MEAN),Week 2,49.0
same,WEIGHTED SEVERITY SCORE OF HOT FLUSHES PER WEEK (MEAN),Week 2,127.1
same,NUMBER OF ALL HOT FLUSHES PER WEEK (MEAN),Week 3,52.3
same,NUMBER OF MODERATE TO SEVERE HOT FLUSHES PER WEEK (MEAN),Week 3,46.5
same,WEIGHTED SEVERITY SCORE OF HOT FLUSHES PER WEEK (MEAN),Week 3,118.9
same,NUMBER OF ALL HOT FLUSHES PER WEEK (MEAN),Week 4,49.4
same,NUMBER OF MODERATE TO SEVERE HOT FLUSHES PER WEEK (MEAN),Week 4,44.0
same,WEIGHTED SEVERITY SCORE OF HOT FLUSHES PER WEEK (MEAN),Week 4,111.6
same,NUMBER OF ALL HOT FLUSHES PER WEEK (MEAN),Week 5,42.7
same,NUMBER OF MODERATE TO SEVERE HOT FLUSHES PER WEEK (MEAN),Week 5,38.3
same,WEIGHTED SEVERITY SCORE OF HOT FLUSHES PER WEEK (MEAN),Week 5,97.8
same,NUMBER OF ALL HOT FLUSHES PER WEEK (MEAN),Week 6,43.7
same,NUMBER OF MODERATE TO SEVERE HOT FLUSHES PER WEEK (MEAN),Week 6,39.8
same,WEIGHTED SEVERITY SCORE OF HOT FLUSHES PER WEEK (MEAN),Week 6,99.0
same,NUMBER OF ALL HOT FLUSHES PER WEEK (MEAN),Week 7,39.2
same,NUMBER OF MODERATE TO SEVERE HOT FLUSHES PER WEEK (MEAN),Week 7,34.7
same,WEIGHTED SEVERITY SCORE OF HOT FLUSHES PER WEEK (MEAN),Week 7,88.3
same,NUMBER OF ALL HOT FLUSHES PER WEEK (MEAN),Week 8,41.8
same,NUMBER OF MODERATE TO SEVERE HOT FLUSHES PER WEEK (MEAN),Week 8,38.1
same,WEIGHTED SEVERITY SCORE OF HOT FLUSHES PER WEEK (MEAN),Week 8,95.8
same,NUMBER OF ALL HOT FLUSHES PER WEEK (MEAN),Week 9,42.4
same,NUMBER OF MODERATE TO SEVERE HOT FLUSHES PER WEEK (MEAN),Week 9,38.5
same,WEIGHTED SEVERITY SCORE OF HOT FLUSHES PER WEEK (MEAN),Week 9,96.0
same,NUMBER OF ALL HOT FLUSHES PER WEEK (MEAN),Week 10,40.5
same,NUMBER OF MODERATE TO SEVERE HOT FLUSHES PER WEEK (MEAN),Week 10,36.6
same,WEIGHTED SEVERITY SCORE OF HOT FLUSHES PER WEEK (MEAN),Week 10,92.7
same,NUMBER OF ALL HOT FLUSHES PER WEEK (MEAN),Week 11,39.5
same,NUMBER OF MODERATE TO SEVERE HOT FLUSHES PER WEEK (MEAN),Week 11,35.6
same,WEIGHTED SEVERITY SCORE OF HOT FLUSHES PER WEEK (MEAN),Week 11,89.8
same,NUMBER OF ALL HOT FLUSHES PER WEEK (MEAN),Week 12,39.7
same,NUMBER OF MODERATE TO SEVERE HOT FLUSHES PER WEEK (MEAN),Week 12,35.8
same,WEIGHTED SEVERITY SCORE OF HOT FLUSHES PER WEEK (MEAN),Week 12,88.5
same,NUMBER OF ALL HOT FLUSHES PER WEEK (MEAN),Week 13,36.2
same,NUMBER OF MODERATE TO SEVERE HOT FLUSHES PER WEEK (MEAN),Week 13,32.8
same,WEIGHTED SEVERITY SCORE OF HOT FLUSHES PER WEEK (MEAN),Week 13,81.4
same,NUMBER OF ALL HOT FLUSHES PER WEEK (MEAN),Week 14,37.8
same,NUMBER OF MODERATE TO SEVERE HOT FLUSHES PER WEEK (MEAN),Week 14,34.2
same,WEIGHTED SEVERITY SCORE OF HOT FLUSHES PER WEEK (MEAN),Week 14,87.0
same,NUMBER OF ALL HOT FLUSHES PER WEEK (MEAN),Week 15,36.5
same,NUMBER OF MODERATE TO SEVERE HOT FLUSHES PER WEEK (MEAN),Week 15,33.7
